Test results reported in patent US20260055110A1 (Azura Ophthalmics Ltd., priority 2021, published 2026).

Key:
[1] = test system: psoriasis, alopecia, dermatitis, dry eye disease; details: humans and/or murine models; literature; cited from earlier work
[2] = test system: keratoconjunctivitis and dry eye disease; details: humans and/or dogs; Kravetz de Oliveira 2019; cited from earlier work
[3] = target: T1, glucocorticoid receptor (GR) (Homo sapiens, UniProt P04150); assay: Glucocorticoid Binding Assay, GR (h) (agonist radioligand); details: IM9 cytosol, 3H-dexamethasone competitive binding
T1 construct: by mixing 1 mg of IM9 cytosol; host or cells: IM9 human lymphoblast cell cytosol
T1 sequence (P04150 1-777): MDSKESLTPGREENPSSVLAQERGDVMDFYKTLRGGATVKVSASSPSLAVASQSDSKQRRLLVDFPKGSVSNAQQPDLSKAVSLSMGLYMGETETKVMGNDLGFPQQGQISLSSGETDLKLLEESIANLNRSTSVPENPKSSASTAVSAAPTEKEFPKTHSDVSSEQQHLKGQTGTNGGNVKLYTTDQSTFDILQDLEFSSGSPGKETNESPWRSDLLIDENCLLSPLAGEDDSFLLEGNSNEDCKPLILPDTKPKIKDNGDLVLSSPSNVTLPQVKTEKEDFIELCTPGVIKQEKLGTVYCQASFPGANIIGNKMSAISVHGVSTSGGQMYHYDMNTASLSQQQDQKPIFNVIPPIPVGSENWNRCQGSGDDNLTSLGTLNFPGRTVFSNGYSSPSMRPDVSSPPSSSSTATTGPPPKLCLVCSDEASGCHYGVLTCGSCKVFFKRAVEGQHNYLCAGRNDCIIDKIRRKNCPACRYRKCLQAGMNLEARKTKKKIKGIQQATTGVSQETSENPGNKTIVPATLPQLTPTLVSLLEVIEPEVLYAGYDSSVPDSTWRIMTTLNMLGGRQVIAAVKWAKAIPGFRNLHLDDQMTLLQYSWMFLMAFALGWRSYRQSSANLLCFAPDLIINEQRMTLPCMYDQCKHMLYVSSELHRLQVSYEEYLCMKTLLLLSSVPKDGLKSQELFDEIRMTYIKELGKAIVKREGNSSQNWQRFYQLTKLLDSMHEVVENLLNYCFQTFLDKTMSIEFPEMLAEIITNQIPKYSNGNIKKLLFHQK
Protocol: GR (h) (agonist radioligand) assay performed by Eurofins Cerep, France using a method similar to the one described hereinbelow.
The human lymphoblast cell line IM9 is used as a source of the soluble glucocorticoid receptor (GR). The cells are grown to densities of 1 to 10×10^5 cells per milliliter in RPMI 1640 media containing 10% fetal bovine serum, penicillin (100 U/ml), streptomycin (100 μg/ml), and 2 mM L-glutamine at […] and 7% CO2 in a humidified incubator. The IM9 cells are harvested from the media by centrifugation for 10 minutes at 1500 g. Cells are washed in 12 volumes of Dulbecco's phosphate-buffered saline (PBS) and re-pelleted. Washed cells are resuspended in five to six volumes (per volume of packed cells) of homogenization buffer (10 mM TES, 10 mM sodium molybdate, 1 mM EDTA, pH 7.4, 20 mM 2-mercaptoethanol, and 10% glycerol), and the cells are broken by nitrogen cavitation using 2×15 minutes at 600 to 750 psi nitrogen in the N2 cavitator at 0° C. Cell disruption is confirmed by Hoffman contrast microscopy using a Nikon Diaphot. The broken cell preparation is then centrifuged at 27,000 g for 15 minutes, and the resultant supernatant was centrifuged at 103,000 g for 60 minutes at 4° C. The amount of protein in the supernatant fraction is determined using a BCA assay kit with a bovine serum albumin standard. Aliquots of the supernatant fraction are snap frozen in a dry ice-acetone bath and stored at −70° C. Competitive binding assays are done in duplicate in homogenization buffer (total volume of […]) by mixing 1 mg of IM9 cytosol, 0.05/ρCi (3 nM) of ^3H-dexamethasone, and Compounds described herein (10^−5 to 10^−11 M). After incubation at 0° C. for 16 to 18 hours, the assay is stopped by the addition of […] of a charcoal-dextran mixture (2% activated charcoal, 0.5% dextran in 10 mM Tris, 1 mM EDTA, pH 7.4). The assay mixture is further incubated at 0° C. for 10 minutes before being centrifuged for 5 minutes at 8200 g. A 100-μl sample of the supernatant (protein-bound steroid fraction) is assayed for radioactivity by liquid scintillation spectrometry, and the IC50 values were determined graphically.
In some instances, an ester is active in the glucocorticoid binding assay. In some instances, an ester retains activity, such as when attached to a keratolytic agent (or a radical thereof), in the glucocorticoid binding assay.

[4] = test system: psoriasis, alopecia, uveitis; details: murine models; Mesa 2010, Falto-Aizpurua et al 2014, Lin et al 2021; cited from earlier work
[5] = test system: dermatitis, keratoconjunctivitis, dry eye disease; details: humans and/or dogs; literature; cited from earlier work
uveitis = details: humans and/or murine models; Gangaputra 2009; cited from earlier work
dry eye = details: murine model; Sadrai et al 2012; cited from earlier work
alopecia = details: humans and murine models; NCT02974868; cited from earlier work
Rabbit Cornea Esterase = assay: Rabbit Cornea Homogenate Stability Assay (Rabbit Cornea Esterase Assay); format: in vitro ADME; details: Table 13, rabbit breed not given
Protocol: Example 1: Rabbit Cornea Homogenate Stability Assay […]
Three to four rabbit corneas (e.g., New Zealand Whites (NZW) or Dutch Belted (DB)) of approx. 50 mg each were sliced and scraped with a scalpel and tweezers until reduced to small (1-3 mm), thin pieces. These were transferred into a glass vial containing approximately 2 mL of cold DPBS pH 7.4 buffer.
Sample was cooled intermittently on ice and shear homogenized for 3 minutes, then centrifuged for 3 min at 13,000 g. The supernatant was pipetted off into a vial, and total protein concentration determined at 280 nm. Sample was stored at −78° C.
10 mM Compound DMSO stocks were diluted to 10 μM in a glass vial: 10 μL of 10 mM Compound stock was added to 9,990 μl 50 mM DPBS, pH 7.4 buffer. Esterase homogenate was diluted to 300 ng/μl and 900 ng/μL in DPBS.
A heater shaker was set to 37° C. Into a suitable 96 well plate (Run Plate), 70 μL of 300 or 900 ng/μl esterase homogenate was pipetted into two rows as compounds were analyzed in duplicate (2 min, 5 min, 10 min, 20 min and 45 min). The plate was sealed and then warmed at 37° C. for 5 min.
Two 96 deep-well plates were put on ice (Kill Plates). To these, 990 μL of 50:50 MeCN—H2O were added to required rows, labelled 0 min 2 min, 5 min, 10 min, 20 min and 45 min. The plates were covered to minimize evaporation.
To both rows of the Run Plate, 70 μL of 10 μM compound solution was added. At the appropriate time point, 10 μL of the assay mixture was added to the matching kill plate well containing 990 μL of 50:50 cold MeCN—H2O. Samples were analyzed as soon as practicable by UPLC-MS (Waters Xevo TQ-S).
A heater shaker was set to 37° C. Into a suitable 96 well plate (Run Plate), 80 μL of 300 or 900 ng/μL esterase homogenate was pipetted into two rows as compounds were analyzed in duplicate (2 min, 5 min, 10 min, 20 min and 45 min). The plate was sealed and then warmed at 37° C. for 5 min.
Two 96 shallow-well plates were placed on ice (Kill Plates). To these, 180 μL of 60:40 MeCN-H2O+0.1% acetic acid are added to required rows. The plates were sealed to minimize evaporation.
To both rows of the Run Plate, 80 μL of 10 μM compound solution was added. At the appropriate time point, 20 μL of the assay mixture was added to the matching kill plate well containing 180 μL of 60:40 cold MeCN-H2O+0.1% acetic acid. For lipoic acid analysis, samples were analyzed as soon as practicable by LCMS (Waters Xevo TQ-S). For parent conjugate and parent analysis the samples are diluted further 1 in 10: 20 μL supernatant is added to 180 μL of 50:50 MeCN—H2O.

C[C@@H]1CCN(C(=O)CC#N)C[C@@H]1N(C)c1ncnc2[nH]ccc12 [Tofacitinib, 3-[(3R,4R)-4-Methyl-3-[methyl(7H-pyrrolo[2,3-d]pyrimidin-4-yl)amino]piperidin-1-yl]-3-oxopropanenitrile]
objective signs of psoriasis, alopecia, dermatitis and dry eye disease [1]: improvements in objective signs

C=CC[C@H]1/C=C(/C)C[C@@H](C)C[C@@H](OC)[C@@H]2O[C@@](O)(C(=O)C(=O)N3CCCCC3C(=O)O[C@H](/C(C)=C/[C@@H]3CC[C@@H](O)[C@H](OC)C3)[C@H](C)[C@@H](O)CC1=O)[C@H](C)C[C@@H]2OC (single isomer, unassigned; (-)) [Tacrolimus]
objective signs of keratoconjunctivitis and dry eye disease [2]: improvements in objective signs

CC(=O)N1[C@H](C(=O)O[C@]2(C(=O)O)[C@H](C)C[C@H]3[C@@H]4C[C@H](F)C5=CC(=O)C=C[C@]5(C)[C@@]4(F)[C@@H](O)C[C@@]32C)CSC1(C)C [Chemical Synthesis Example 70, (6S,8S,9R,10S,11S,13S,14S,16R,17R)-17-(((R)-3-Acetyl-2,2-dimethylthiazolidine-4-carbonyl)oxy)-6,9-difluoro-11-hydroxy-10,13,16-trimethyl-3-oxo-6,7,8,9,10,11,12,13,14,15,16,17-dodecahydro-3H-cyclopenta[a]phenanthrene-17-carboxylic acid]
EC50 [3]: > 100 nM

N#CC[C@H](C1CCCC1)n1cc(-c2ncnc3[nH]ccc23)cn1 [Ruxolitinib, (3R)-3-Cyclopentyl-3-[4-(7H-pyrrolo[2,3-d]pyrimidin-4-yl)pyrazol-1-yl]propanenitrile]
objective signs of psoriasis, alopecia and uveitis [4]: improvements in objective signs

C[C@]12C=CC(=O)C=C1CC[C@H]1[C@@H]3CC[C@](OC(=O)CCCC[C@@H]4CCSS4)(C(=O)OCCl)[C@@]3(C)C[C@H](O)[C@@]12F
EC50 [3]: 0.35 nM

CNS(=O)(=O)C[C@H]1CC[C@H](N(C)c2ncnc3[nH]ccc23)CC1 [Oclacitinib, N-methyl{trans-4-[methyl(7H-pyrrolo[2,3-d]pyrimidin-4-yl)amino]cyclohexyl}methanesulfonamide]
objective signs of dermatitis, keratoconjunctivitis and dry eye disease [5]: improvements in objective signs

C[C@@H]1C[C@H]2[C@@H]3C[C@H](F)C4=CC(=O)C=C[C@]4(C)[C@@]3(F)[C@@H](O)C[C@]2(C)[C@@]1(OC(=O)CCCC[C@@H]1CCSS1)C(=O)O [Chemical Synthesis Example 68, (6S,8S,9R,10S,11S,13S,14S,16R,17R)-17-((5-((R)-1,2-Dithiolan-3-yl)pentanoyl)oxy)-6,9-difluoro-11-hydroxy-10,13,16-trimethyl-3-oxo-6,7,8,9,10,11,12,13,14,15,16,17-dodecahydro-3H-cyclopenta[a]phenanthrene-17-carboxylic acid]
EC50 [3]: 21 nM

CN(Cc1cnc2nc(N)nc(N)c2n1)c1ccc(C(=O)N[C@@H](CCC(=O)O)C(=O)O)cc1 [methotrexate, (2S)-2-[(4-{[(2,4-Diaminopteridin-6-yl)methyl](methyl)amino}benzoyl)amino]pentanedioic acid]
objective signs of uveitis (uveitis): improvements in objective signs

COc1ccc([C@]2(C#N)CC[C@@H](C(=O)O)CC2)cc1OC1CCCC1 [Cilomilast, cis-4-cyano-4-[3-(cyclopentyloxy)-4-methoxyphenyl]cyclohexanecarboxylic acid]
objective signs of dry eye (dry eye): improvements in objective signs

C=CC(=O)N1C[C@H](Nc2ncnc3[nH]ccc23)CC[C@@H]1C [Ritlecitinib, 1-((2S,5R)-5-((7H-pyrrolo[2,3-d]pyrimidin-4-yl)amino)-2-methylpiperidin-1-yl)prop-2-en-1-one]
objective signs of alopecia (alopecia): improvements in objective signs

C[C@@H]1C[C@H]2[C@@H]3C[C@H](F)C4=CC(=O)C=C[C@]4(C)[C@@]3(F)[C@@H](O)C[C@]2(C)[C@@]1(OC(=O)CCCC[C@@H]1CCSS1)C(=O)OCC#N [Compound 73A, Cyanomethyl (6S,8S,9R,10S,11S,13S,14S,16R,17R)-17-((5-((R)-1,2-dithiolan-3-yl)pentanoyl)oxy)-6,9-difluoro-11-hydroxy-10,13,16-trimethyl-3-oxo-6,7,8,9,10,11,12,13,14,15,16,17-dodecahydro-3H-cyclopenta[a]phenanthrene-17-carboxylate]
Esterase (0.15 mg/mL) % parent released after 45 min (Rabbit Cornea Esterase; rabbit cornea homogenate 0.15 mg/mL): A (<25%) | Esterase (0.45 mg/mL) % parent released after 45 min (Rabbit Cornea Esterase; rabbit cornea homogenate 0.45 mg/mL): A (<25%) | EC50 [3]: > 100 nM
